Measured values as given in patent US7416885B2, “Proliferated cell lines and uses thereof” (University of South Florida, priority 2002, dated 2008).

Key:
RCVC cells = experiment: 45Ca2+ influx in RCVC cells; type: cell-based, rat; conditions: normally polarized cells
RCSN-3 cells [1] = tested on: RCSN-3 cells
[2] = target: receptors for α-bungarotoxin (Homo sapiens, UniProt P02708+P07510+Q07001); type: binding
[3] = target: microsomal fraction from RCVC cells (Rattus norvegicus, UniProt P22002); experiment: 3H-nitrendipine binding to microsomal fraction of RCVC cells; conditions: read-out: equilibrium dissociation constant
[4] = target: single class of receptors for [3H]en-TTX; type: binding, rat
RCSN cells = experiment: intracellular Ca2+ imaging in Fluo-3 loaded RCSN cells; type: cell-based, rat; conditions: differentiated cells, 200 μM glutamate applied externally
UCHCC1 cells = type: cell-based, rat; conditions: read-out: half-maximal inhibitory concentration
[5] = target: T1, receptors for dihydropyridines (Homo sapiens, UniProt Q13698); experiment: dihydropyridine ([3H]PN200-110) binding to RCMH cells
T1 construct: endogenous in cells; host or cells: RCMH (immortalized human skeletal muscle cell line)

[6] = tested on: MAO B activity in RCSN-3 cell lysates; experiment: MPP+ production by RCSN-3 cell lysates incubated with MPTP (HPLC); type: biochemical, rat
Protocol: To verify if RCSN-3 cells can produce MPP^+ from MPTP, lisates of RCSN-3 cells (differentiated and non-differentiated) were incubated with MPTP. Differentiation was induced by culturing in F10 media+2% adult bovine serum for one week. Non-differentiated conditions were attained with F10 media+10% adult bovine serum and 2.5% fetal bovine serum. Lisate buffer was PBS with 50 μM PMSF and a protease inhibiting cocktail (leupeptin, pepstatine, chemostatin). Samples were incubated with MPTP and MPP^+ for 15 min. at 37° C. HPLC studies were carried out in a SHIMADZU HPLC with […], reading at 245 nm. Results are shown in FIGS. 16A–C, FIGS. 17A–D, and FIGS. 18A–C.

RCSN-3 cells [7] = tested on: RCSN-3 cells; remark: listed apart in the source
RCSN-3 cells [8] = experiment: melanin fluorescence in RCSN-3 cells preincubated with L-Dopa; type: cell-based, rat; conditions: for melanin, mean: L-DOPA, n 3 (ANOVA summary); for melanin, Average: L-DOPA (+), 100 microM, 24 hrs
Protocol: RCSN-3 cells were preincubated for 24 hrs in the presence of 100 microM L-Dopa. Cells were lysed with a hypotonic buffer. […] Oxidation of melanin in vitro degraded the melanin polymer, resulting in a fluorescent solution. Fluorescence spectroscopy gave an excitation maximum at approximately 470 nm and an emission maximum at approximately 540 nm for both natural and synthetic melanin. Increasing the time of exposure to light or hydrogen peroxide increased melanin fluorescence (Kayatz, P et al., Invest Ophthalmol Vis Sci, January 2001,42(1):241–6).

Chain of receptors for α-bungarotoxin (P02708 21-457 limits assumed): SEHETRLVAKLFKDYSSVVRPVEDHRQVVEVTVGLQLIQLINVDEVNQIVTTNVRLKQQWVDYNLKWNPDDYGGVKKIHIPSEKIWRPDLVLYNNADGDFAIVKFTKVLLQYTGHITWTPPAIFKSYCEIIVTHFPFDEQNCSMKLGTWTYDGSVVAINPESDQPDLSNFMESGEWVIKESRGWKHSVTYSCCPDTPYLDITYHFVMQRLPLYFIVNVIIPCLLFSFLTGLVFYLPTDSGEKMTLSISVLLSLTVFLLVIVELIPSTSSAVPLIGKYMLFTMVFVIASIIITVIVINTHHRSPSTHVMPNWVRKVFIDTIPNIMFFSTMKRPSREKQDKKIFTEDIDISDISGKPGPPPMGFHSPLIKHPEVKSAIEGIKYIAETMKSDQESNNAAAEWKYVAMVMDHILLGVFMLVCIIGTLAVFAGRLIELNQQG
Chain of receptors for α-bungarotoxin (P07510 23-517 limits assumed): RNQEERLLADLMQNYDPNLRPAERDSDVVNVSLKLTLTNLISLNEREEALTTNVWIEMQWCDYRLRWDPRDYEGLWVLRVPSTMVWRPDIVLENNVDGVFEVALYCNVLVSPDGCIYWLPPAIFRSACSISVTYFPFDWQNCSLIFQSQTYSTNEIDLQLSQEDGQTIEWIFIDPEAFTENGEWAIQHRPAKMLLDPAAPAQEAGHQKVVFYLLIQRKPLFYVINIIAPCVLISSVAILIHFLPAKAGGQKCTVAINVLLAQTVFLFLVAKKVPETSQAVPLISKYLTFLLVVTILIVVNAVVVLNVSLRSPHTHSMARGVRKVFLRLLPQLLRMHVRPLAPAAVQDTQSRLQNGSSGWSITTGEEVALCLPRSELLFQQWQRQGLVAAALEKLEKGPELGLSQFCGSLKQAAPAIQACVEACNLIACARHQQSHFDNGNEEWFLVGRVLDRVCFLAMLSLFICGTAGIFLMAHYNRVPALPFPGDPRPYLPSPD
Chain of receptors for α-bungarotoxin (Q07001 22-517 limits assumed): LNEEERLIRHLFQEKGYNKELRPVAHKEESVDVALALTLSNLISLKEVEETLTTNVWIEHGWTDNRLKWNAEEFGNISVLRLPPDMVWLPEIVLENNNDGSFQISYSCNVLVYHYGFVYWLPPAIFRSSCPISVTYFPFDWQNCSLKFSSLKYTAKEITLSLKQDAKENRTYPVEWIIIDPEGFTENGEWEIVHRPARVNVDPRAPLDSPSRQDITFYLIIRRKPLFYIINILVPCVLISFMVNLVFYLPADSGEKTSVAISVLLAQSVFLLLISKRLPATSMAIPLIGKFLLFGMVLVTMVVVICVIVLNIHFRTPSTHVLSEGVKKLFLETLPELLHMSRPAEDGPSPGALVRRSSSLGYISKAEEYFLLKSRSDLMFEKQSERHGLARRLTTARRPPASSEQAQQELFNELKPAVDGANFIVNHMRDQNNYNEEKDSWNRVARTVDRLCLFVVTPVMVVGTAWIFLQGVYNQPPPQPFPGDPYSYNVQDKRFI
T1 sequence (Q13698 whole entry): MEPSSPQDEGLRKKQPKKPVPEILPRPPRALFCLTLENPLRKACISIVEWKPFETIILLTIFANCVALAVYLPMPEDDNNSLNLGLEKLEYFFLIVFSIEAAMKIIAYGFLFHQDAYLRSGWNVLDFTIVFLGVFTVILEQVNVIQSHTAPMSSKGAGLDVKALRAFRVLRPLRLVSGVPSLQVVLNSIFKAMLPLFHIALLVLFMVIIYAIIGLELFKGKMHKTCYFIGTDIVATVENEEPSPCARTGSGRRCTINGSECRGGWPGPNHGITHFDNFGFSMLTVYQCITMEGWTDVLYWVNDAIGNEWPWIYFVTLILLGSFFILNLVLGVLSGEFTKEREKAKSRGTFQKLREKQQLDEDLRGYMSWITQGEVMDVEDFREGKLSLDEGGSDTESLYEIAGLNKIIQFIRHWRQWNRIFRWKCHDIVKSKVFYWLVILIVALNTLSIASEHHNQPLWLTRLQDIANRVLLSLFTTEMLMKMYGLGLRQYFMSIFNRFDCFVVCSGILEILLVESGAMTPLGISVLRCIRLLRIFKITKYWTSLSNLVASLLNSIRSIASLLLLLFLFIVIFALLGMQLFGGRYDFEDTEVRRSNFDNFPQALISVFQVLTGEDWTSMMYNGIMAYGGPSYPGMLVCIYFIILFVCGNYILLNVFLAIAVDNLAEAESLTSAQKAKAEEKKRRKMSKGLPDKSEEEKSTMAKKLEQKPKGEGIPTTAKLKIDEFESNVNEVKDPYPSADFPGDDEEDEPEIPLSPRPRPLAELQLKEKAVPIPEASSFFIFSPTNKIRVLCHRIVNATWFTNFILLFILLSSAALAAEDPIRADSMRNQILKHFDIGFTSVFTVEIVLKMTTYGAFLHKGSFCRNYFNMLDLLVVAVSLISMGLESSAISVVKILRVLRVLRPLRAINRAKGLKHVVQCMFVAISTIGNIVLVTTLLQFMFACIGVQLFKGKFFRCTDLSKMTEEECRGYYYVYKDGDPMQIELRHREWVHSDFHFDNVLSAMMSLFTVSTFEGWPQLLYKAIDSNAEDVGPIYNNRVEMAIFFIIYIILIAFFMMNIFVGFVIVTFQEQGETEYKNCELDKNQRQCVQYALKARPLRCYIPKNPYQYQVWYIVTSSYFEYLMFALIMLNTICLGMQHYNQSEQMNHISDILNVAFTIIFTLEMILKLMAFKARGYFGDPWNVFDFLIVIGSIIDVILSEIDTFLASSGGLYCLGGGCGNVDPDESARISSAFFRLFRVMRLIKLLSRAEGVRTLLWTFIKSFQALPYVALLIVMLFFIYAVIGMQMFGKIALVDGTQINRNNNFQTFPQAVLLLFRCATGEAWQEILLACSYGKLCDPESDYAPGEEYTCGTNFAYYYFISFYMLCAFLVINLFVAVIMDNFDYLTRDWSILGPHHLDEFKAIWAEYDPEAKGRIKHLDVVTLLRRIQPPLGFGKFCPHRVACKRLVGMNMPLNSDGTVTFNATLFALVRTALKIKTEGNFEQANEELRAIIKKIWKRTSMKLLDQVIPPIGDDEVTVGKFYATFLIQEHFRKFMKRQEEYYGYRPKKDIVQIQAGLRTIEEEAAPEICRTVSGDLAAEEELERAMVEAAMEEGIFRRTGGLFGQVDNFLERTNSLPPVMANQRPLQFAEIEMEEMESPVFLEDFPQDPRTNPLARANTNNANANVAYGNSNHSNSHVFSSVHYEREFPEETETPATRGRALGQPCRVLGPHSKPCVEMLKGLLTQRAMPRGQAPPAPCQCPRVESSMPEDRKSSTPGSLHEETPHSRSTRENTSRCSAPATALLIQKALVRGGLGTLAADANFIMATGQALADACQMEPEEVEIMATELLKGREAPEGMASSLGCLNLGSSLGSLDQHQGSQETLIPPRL

COC(=O)C1=C(C)NC(C)=C([N+](=O)[O-])C1c1ccccc1C(F)(F)F (centres unmarked) [BAYK-8644]
45Ca2+ influx induced by calcium channel agonist (RCVC cells): equivalent influx

[Mn+2] [manganese]
mitochondrial membrane potential (JC-1 fluorescence) (RCSN-3 cells [1]): decrease in membrane potential
ratio of emission between JC-1 and J monomer, normalized to basal fluorescence (RCSN-3 cells [1]): significant differences from controls

α-bungarotoxin
Bmax [2]: 0.7 pmol/mg protein
Kd [2]: 1.5 nM

NCCc1ccc(O)c(O)c1 [dopamine]
mitochondrial membrane potential (JC-1 fluorescence) (RCSN-3 cells [1]): decrease in membrane potential
ratio of emission between JC-1 and J monomer, normalized to basal fluorescence (RCSN-3 cells [1]): significant differences from controls

CCOC(=O)C1=C(C)NC(C)=C(C(=O)OC)C1c1cccc([N+](=O)[O-])c1 (centres unmarked) [^3H-nitrendipine, nitrendipine]
Kd [3]: 0.7 nM

[^3H]ethylenediamine-tetrodotoxin [[^3H]en-TTX]
Kd [4]: 1.1 nM
maximal binding (Bmax) [4]: 173 fmol/mg protein

CCOC(=O)C1=C(C)NC2=C(C(=O)OC2)C1c1ccccc1OC(F)F (centres unmarked) [CGP-28392]
45Ca2+ influx induced by calcium channel agonist (RCVC cells): equivalent influx

N[C@@H](CCC(=O)O)C(=O)O [glutamate]
cells responding with increases in Ca2+ (RCSN cells): up to 40%

NC1=N[C@H](O)[C@H]2[C@H]3O[C@]4(O)O[C@@H]([C@@H](O)[C@@]2(N1)[C@@H]4O)[C@]3(O)CO [tetrodotoxin]
IC50 (UCHCC1 cells): 0.9 nM

COC(=O)C1=C(C)NC(C)=C(C(=O)OC(C)C)C1c1cccc2nonc12 (centres unmarked) [[^3H]PN200-110]
Bmax [5]: 0.3 pmol/mg protein
Kd [5]: 0.5 nM

CN1CC=C(c2ccccc2)CC1 [MPTP, 1-methyl-4-phenyl-1,2,3,6-tetrahydropyridine]
production of MPP+ from MPTP [6]: no production of MPP^+

C[n+]1ccc(-c2ccccc2)cc1 [MPP+, 1-methyl-4-phenylpyridinium]
mitochondrial membrane potential (JC-1 fluorescence) (RCSN-3 cells [1]): affects mitochondrial function
ratio of emission between JC-1 and J monomer, normalized to basal fluorescence (RCSN-3 cells [1]): significant differences from controls
DNA fragmentation (TUNEL) (RCSN-3 cells [7]): fragmentation of DNA

N[C@@H](Cc1ccc(O)c(O)c1)C(=O)O [L-DOPA, levodopa]
melanin, mean (RCSN-3 cells [8]; Glass): 0.03305
melanin, mean (RCSN-3 cells [8]; Plastic): 0.04045
melanin, Average (RCSN-3 cells [8]; glass dishes): 0.033
melanin, Average (RCSN-3 cells [8]; plastic dishes): 0.040
